Numbers after ± are expanded uncertainties.
Experiment: wn = mass fraction of the nth substance listed
Conditions: Liquid, inclined tube viscometer, w1 = 0.505

`FC(F)C(F)(F)F` [pentafluoroethane] + FCF showed a kinematic viscosity (256.15 K) of 1.72e-07 ± 1.5e-09 m2/s, a kinematic viscosity (258.15 K) of 1.685e-07 ± 1.5e-09 m2/s and a kinematic viscosity (260.15 K) of 1.652e-07 ± 1.5e-09 m2/s. It also gave a kinematic viscosity (262.15 K) of 1.619e-07 ± 1.4e-09 m2/s, a kinematic viscosity (264.15 K) of 1.587e-07 ± 1.4e-09 m2/s and a kinematic viscosity (266.15 K) of 1.556e-07 ± 1.4e-09 m2/s. For the same molecule, the kinematic viscosity (268.15 K) was 1.526e-07 ± 1.3e-09 m2/s, the kinematic viscosity (270.15 K) was 1.497e-07 ± 1.3e-09 m2/s and the kinematic viscosity (272.15 K) was 1.468e-07 ± 1.3e-09 m2/s. The kinematic viscosity (274.15 K) was 1.44e-07 ± 1.3e-09 m2/s, the kinematic viscosity (276.15 K) was 1.413e-07 ± 1.2e-09 m2/s and the kinematic viscosity (278.15 K) was 1.386e-07 ± 1.2e-09 m2/s. The kinematic viscosity (280.15 K) was 1.36e-07 ± 1.2e-09 m2/s, the kinematic viscosity (282.15 K) was 1.335e-07 ± 1.2e-09 m2/s and the kinematic viscosity (284.15 K) was 1.31e-07 ± 1.2e-09 m2/s. It also gave a kinematic viscosity (286.15 K) of 1.285e-07 ± 1.1e-09 m2/s, a kinematic viscosity (288.15 K) of 1.262e-07 ± 1.1e-09 m2/s and a kinematic viscosity (290.15 K) of 1.238e-07 ± 1.1e-09 m2/s. For the same molecule, the kinematic viscosity (292.15 K) was 1.215e-07 ± 1.1e-09 m2/s, the kinematic viscosity (294.15 K) was 1.193e-07 ± 1e-09 m2/s and the kinematic viscosity (296.15 K) was 1.171e-07 ± 1e-09 m2/s. For the same molecule, the kinematic viscosity (298.15 K) was 1.15e-07 ± 1e-09 m2/s, the kinematic viscosity (300.15 K) was 1.129e-07 ± 1e-09 m2/s and the kinematic viscosity (302.15 K) was 1.108e-07 ± 1e-09 m2/s. It also gave a kinematic viscosity (304.15 K) of 1.088e-07 ± 1e-09 m2/s, a kinematic viscosity (306.15 K) of 1.068e-07 ± 9e-10 m2/s and a kinematic viscosity (308.15 K) of 1.048e-07 ± 9e-10 m2/s. The kinematic viscosity (310.15 K) was 1.029e-07 ± 9e-10 m2/s, the kinematic viscosity (312.15 K) was 1.01e-07 ± 9e-10 m2/s and the kinematic viscosity (314.15 K) was 9.92e-08 ± 9e-10 m2/s. It also gave a kinematic viscosity (316.15 K) of 9.73e-08 ± 9e-10 m2/s, a kinematic viscosity (318.15 K) of 9.55e-08 ± 8e-10 m2/s and a kinematic viscosity (320.15 K) of 9.38e-08 ± 8e-10 m2/s. It also gave a kinematic viscosity (322.15 K) of 9.2e-08 ± 8e-10 m2/s, a kinematic viscosity (324.15 K) of 9.03e-08 ± 8e-10 m2/s and a kinematic viscosity (326.15 K) of 8.86e-08 ± 8e-10 m2/s. It also gave a kinematic viscosity (328.15 K) of 8.7e-08 ± 8e-10 m2/s, a kinematic viscosity (330.15 K) of 8.53e-08 ± 8e-10 m2/s and a kinematic viscosity (332.15 K) of 8.37e-08 ± 7e-10 m2/s. It also gave a kinematic viscosity (334.15 K) of 8.21e-08 ± 7e-10 m2/s and a kinematic viscosity (336.15 K) of 8.06e-08 ± 7e-10 m2/s.

From the NIST ThermoML archive (doi:10.1021/je9009442)
